Structures are written as SMILES.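 A five-concentration, 48-hour dose response in 96-well plates underlies each endpoint, interpolated linearly between surrounding concentrations. At the GI50, growth is halved.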 Active and inactive are the calls of the source. Rule as the data show it: active = GI50 up to about 1.1 µM and inactive = higher. Bounds are passed on as bounds.

What all share (assay): NCI anticancer screen, dose series, 48 h
Assay [1] has as its system BT-549.
Assay [2] relates to MDA-N.
Assay [3] relates to SNB-78.
Assay [4] has as its system XF498.
Assay [5] concerns DMS-273.
In assay [6] the test system is HOP-18.
Assay [7] relates to LXFL 529.
The subject of assay [8] is KM-20L2.

`CC(C)(C)OC(=O)Cn1ncn(NC(=O)Cc2ccccc2)c1=S`: the GI50 in assay [1] and in assay [2] was > 10 µM (inactive) each time.
Consider `Cc1cccc(Cl)c1NCC(O)CN1CCN(C)CC1` (centres undefined), for which the GI50 in assay [1] and in assay [2] was > 100 µM (inactive) each time.
Regarding `N#Cc1c(-c2ccc(Cl)cc2)c(C#N)c(=O)n(NS(=O)(=O)c2ccccc2)c1-c1ccccc1`, the GI50 in assay [1] and in assay [2] was > 25 µM (inactive) in each case.
As for `COc1ccc(/C(=C\c2cc(OC)c(OC)c(OC)c2)C(=O)O)cc1`, the GI50 in assay [3] was 39 µM (inactive); in assay [4], 11.1 µM (inactive); in assay [5] it was 23.3 µM (inactive); in assay [6], > 100 µM (inactive); in assay [7] it was 41 µM (inactive); in assay [8], 21 µM (inactive).
Turning to `CC1(c2cccc3c2C2(O)C=CC4(CCC32)OCCO4)OCCO1` (centres undefined), the GI50 in assay [3], in assay [5], in assay [6], in assay [7] and in assay [8] was > 100 µM (inactive) in each case.
Take `CC1=CC(=O)C(C(O)(C(F)(F)F)C(F)(F)F)C(C)(C)C1` (centres undefined): the GI50 in assay [2] was > 10 µM (inactive).
On to `Cc1ccc(S(=O)(=O)OI(O)CC(F)(F)F)cc1`, for which the GI50 in assay [1] is > 100 µM (inactive).
On to `CCOC(=O)c1cc(=O)n(C)c(=O)n1C`, for which the GI50 in assay [3], in assay [4], in assay [5], in assay [6], in assay [7] and in assay [8] was > 100 µM (inactive) each time.
For `OC(Cc1cnnc2ccccc12)C(Cl)(Cl)Cl` (centres undefined), the GI50 in assay [2] was > 10 µM (inactive).
Consider `O=C(NC(CS)C(=O)O)c1c2ccccc2nc2ccccc12` (centres undefined), for which the GI50 was 12.8 µM (inactive) in assay [1] and 14.5 µM (inactive) in assay [2].
The corresponding values for `CCOC(=O)C1(F)S(=O)(=O)OCCOS1(=O)=O` are > 100 µM (inactive) and > 100 µM (inactive).
`O=C(O)CNc1ccc2c(c1)Cc1cc(Br)ccc1-2`: the GI50 in assay [1] is 23.3 µM (inactive).
Turning to `CC1=N/C(=C\c2ccc(/C=C3/N=C(C)OC3=O)cc2)C(=O)O1`, the GI50 in assay [3], in assay [4], in assay [5], in assay [6], in assay [7] and in assay [8] was > 100 µM (inactive) each time.
As to `O=c1c2cc(Br)ccc2nc(-c2ccccc2)n1NCC1(O)OCC(O)C(O)C1O` (centres undefined), the GI50 in assay [3] was > 100 µM (inactive); in assay [5] it was > 100 µM (inactive); in assay [7] it was 92 µM (inactive); in assay [8] it was > 100 µM (inactive).
Regarding `CCOC(=O)C1C(c2ccc(O)c(OC)c2)c2c(n[nH]c2O)CC1(C)O` (centres undefined), the figures for the GI50 in assay [1] and in assay [2] were 0.0159 µM (active) and > 100 µM (inactive), respectively.
Take `CCOP(=O)(OCC)/C(C#N)=C/c1ccnc2ccccc12`: the GI50 is 23.9 µM (inactive) in assay [1] and 21.9 µM (inactive) in assay [2].
`Nn1c(S)nnc1CCCCCCCCc1nnc(S)n1N`: the GI50 in assay [1] and in assay [2] was > 100 µM (inactive) throughout.
As for `COc1ccc(/C=C2\OC(=O)C(Cl)=C2c2ccc(OC)c(Cl)c2)cc1`, the GI50 in assay [2] was 17.7 µM (inactive).
In the case of `COc1cccc(N2C(=O)CS(=O)(=O)C2c2cccc(Oc3ccccc3)c2)c1` (centres undefined), the figures for the GI50 in assay [1] and in assay [2] were 20.1 µM (inactive) and 2.38 µM (inactive), respectively.
Take `OC1(C(Sc2cc(C(F)(F)F)cc(C(F)(F)F)c2)Sc2cc(C(F)(F)F)cc(C(F)(F)F)c2)C=CCCC1` (centres undefined): the GI50 in assay [1] was 3.35 µM (inactive); in assay [2], 2.56 µM (inactive).
The corresponding values for `O=C(O)c1ccccc1Sc1ccccc1[N+](=O)[O-]` are > 100 µM (inactive) and > 100 µM (inactive).
Taken in the same sequence, the figures for `O=c1[nH]nc(-c2cccc(Br)c2)[nH]1` were 4.74 µM (inactive) and > 100 µM (inactive).
With `COc1ccc(-c2cc(-c3ccc(Nc4ccnc5cc(Cl)ccc45)cc3)[nH]c(=O)c2C#N)c2ccccc12`, the GI50 in assay [1] is 16.4 µM (inactive); in assay [2], 2.01 µM (inactive).
With `COc1ccc(C[N+]23C(CC[C@H]2c2ccccc2)CC[C@H]3c2ccccc2)cc1` (some centres undefined), the GI50 in assay [2] is 13.2 µM (inactive).
`CCN1C(=O)/C(=C/Nc2ccccc2)S/C1=N/Nc1nc(-c2ccc(O)c(O)c2)cs1`: the GI50 in assay [2] was 1.71 µM (inactive).
Regarding `CO[C@H]1/C=C/O[C@@]2(C)Oc3c(C)c(O)c4c(O)c(c(/C=N/N5CCN(C)CC5)c(O)c4c3C2=O)NC(=O)/C(C)=C\C=C\[C@H](C)[C@H](O)[C@@H](C)[C@@H](O)[C@@H](C)[C@H](OC(C)=O)[C@@H]1C` [RIFAMPIN], the GI50 in assay [1] was 62.8 µM (inactive); in assay [2] it was > 100 µM (inactive).
In the case of `O=C(O)[C@H](Cc1ccccc1)NCCN1CCC[C@H]1C(=O)O`, the GI50 in assay [2] is > 100 µM (inactive).
For the molecule `N#C[C@](CO)(NC(=O)OCc1ccccc1)C(F)F`, the GI50 in assay [1] was > 100 µM (inactive).
Turning to `O=C(O)Cc1cccc2c(=O)c3ccccc3oc12`, the GI50 in assay [1] and in assay [2] was > 100 µM (inactive) each time.
On to `S=c1[nH]c2ccc(Br)cc2c(=S)s1`, for which the GI50 was 29.9 µM (inactive) in assay [1] and 23.4 µM (inactive) in assay [2].
Turning to `CCOC(=O)N1CCC2(CC1)C[C@](Sc1ccccc1)(C(C)=O)[C@H](C)O2`, the GI50 in assay [2] is 53.5 µM (inactive).
`O=C(Nc1ccc(Cl)cc1)Oc1ccc(C(=S)Nc2ccc(Br)cc2)cc1`: the GI50 in assay [1] was 17.9 µM (inactive); in assay [2], 16.7 µM (inactive).
As for `CC1(C)OC2OC(/C=C/[N+](=O)[O-])C3OC(C)(C)OC3C2O1` (centres undefined), the GI50 in assay [3] was 14.2 µM (inactive); in assay [5], 17.3 µM (inactive); in assay [6] it was 23.1 µM (inactive); in assay [7], 2.76 µM (inactive); in assay [8], 19.5 µM (inactive).
`CC1(C)C(CC(=O)O)CCCC1CC(=O)O` (centres undefined): the GI50 in assay [1] and in assay [2] was > 100 µM (inactive) in each case.
Turning to `CCN(CC)C(=O)CCn1cc(F)c(=O)[nH]c1=O`, the GI50 in assay [3], in assay [4], in assay [5], in assay [7] and in assay [8] was > 100 µM (inactive) each time.
In the case of `Cn1cc(NC(=O)Nc2cc(C(=O)Nc3cc(C(=O)Nc4cc(S(=O)(=O)O)c5cc(S(=O)(=O)O)cc(S(=O)(=O)O)c5c4)n(C)c3)n(C)c2)cc1C(=O)Nc1cc(C(=O)Nc2cc(S(=O)(=O)O)c3cc(S(=O)(=O)O)cc(S(=O)(=O)O)c3c2)n(C)c1`, the GI50 in assay [1] and in assay [2] was > 100 µM (inactive) throughout.
For the molecule `Cc1cc(=O)[nH]c2cc(NC(=O)C(C)NC(=O)C(C)NC(=O)C(C)NC(=O)OC(C)(C)C)ccc12` (centres undefined), the GI50 in assay [1] and in assay [2] was > 15 µM (inactive) each time.
As to `N#Cc1ccccc1NC(=O)/C(=N\N)C(C(=O)c1ccncc1)C1OC(=O)c2ccccc21` (centres undefined), the GI50 in assay [4], in assay [7] and in assay [8] was > 100 µM (inactive) each time.
Take `COc1cc([C@@H]2c3cc4c(cc3[C@@H](Nc3ccc([N+](=O)[O-])cc3C(=O)c3ccccc3)[C@H]3COC(=O)[C@H]23)OCO4)cc(OC)c1OC`: the GI50 in assay [2] was 0.0687 µM (active).
With `COC(=O)c1cc2ccc(N)nc2[nH]c1=O`, the GI50 in assay [1] and in assay [2] was > 100 µM (inactive) throughout.
For `CCN(CC)CCN(C)CC(C)(C)C(=O)/C=C/c1ccccc1`, the GI50 in assay [4] was 12.4 µM (inactive); in assay [5], 13 µM (inactive); in assay [6] it was 15.9 µM (inactive); in assay [7] it was 12.3 µM (inactive); in assay [8], 11.1 µM (inactive).
For `O=[N+]([O-])c1ccc(/C(=N/c2ccccc2)SS/C(=N\c2ccccc2)c2ccc([N+](=O)[O-])o2)o1`, the figures for the GI50 in assay [1] and in assay [2] were 1.75 µM (inactive) and 2.72 µM (inactive), respectively.
Taken in the same sequence, the figures for `COc1ccc2c(c1)-c1c(c3cc(OC)ccc3n1CCN(C)C)CC2` were 13.9 µM (inactive) and 14.2 µM (inactive).
In the case of `CCCCCCCCCCCCN(CC(O)C(O)C(OC1OC(CO)C(O)C(O)C1O)C(O)CO)C(=O)CCCCCCCCCCC` (centres undefined), the GI50 was 20.4 µM (inactive) in assay [1] and 21 µM (inactive) in assay [2].
As for `Nc1ncnc2c1ncn2C1OC(CO)C(O)C1NS(=O)(=O)c1ccccc1` (centres undefined), the GI50 in assay [1] and in assay [2] was > 100 µM (inactive) in each case.
As for `Cc1cc(C)c(S(=O)(=O)N2CCCN(S(=O)(=O)c3c(C)cc(C)cc3C)OCCCO2)c(C)c1`, the GI50 in assay [1] and in assay [2] was > 100 µM (inactive) throughout.
Consider `Nc1ccc(CCN2CCN(CCCc3ccccc3)CC2)cc1`, for which the GI50 in assay [1] is 80.7 µM (inactive); in assay [2], > 100 µM (inactive).
Taken in the same sequence, the figures for `N#Cc1ccc(C2ON=C(c3ccccc3)N2C23CC4CC(CC(C4)C2)C3)cc1` (centres undefined) were 5.66 µM (inactive) and > 10 µM (inactive).
The corresponding values for `CCC1C(c2cc(OC)c(OC)c(OC)c2)c2cc3c(cc2OC1N1CCCC1)OCO3` (centres undefined) are 4.06 µM (inactive) and 0.231 µM (active).
For the molecule `Cc1ccc(S(=O)(=O)N/N=C/C(Br)=C(/Br)C(=O)O)cc1`, the GI50 in assay [1] is 6.55 µM (inactive); in assay [2] it was 4.69 µM (inactive).
The corresponding values for `CC(C)NC(=O)OCc1c(COC(=O)NC(C)C)c(-c2ccc[n+](COC(=O)CC(C)(C)C)c2)n2c1CCC2` are > 100 µM (inactive) and > 100 µM (inactive).
Take `CCOC(=O)C1=C(C)C2C3C(=O)NC(=O)C3C1(C)C1C(=O)NC(=O)C21` (centres undefined): the GI50 in assay [3] is > 100 µM (inactive); in assay [5] it was > 100 µM (inactive); in assay [6] it was 3.49 µM (inactive); in assay [7] it was > 100 µM (inactive); in assay [8], > 100 µM (inactive).
In the case of `COc1c(C)c(C/C=C(\C)CCCCO[Si](C(C)C)(C(C)C)C(C)C)c(OC)c2ccccc12`, the GI50 in assay [1] and in assay [2] was > 100 µM (inactive) in each case.
As for `CC(=O)Nc1ccc(C(=O)N[C@@H]2C(=O)N3[C@@H]2SC(C)(C)[C@@H]3C(=O)O)cn1`, the GI50 in assay [1] and in assay [2] was > 100 µM (inactive) in each case.
`O=C1OC(OC/C(Br)=C(\Br)COC2OC(=O)C(Cl)=C2Cl)C(Cl)=C1Cl` (centres undefined): the GI50 was 2.67 µM (inactive) in assay [1] and 3.65 µM (inactive) in assay [2].

The record behind these values is ChEMBL document CHEMBL1201862, “PubChem BioAssay data set” (2004).
